Test system: A2780 cells
Test: chemotherapy-dependent RNA degradation (RNA integrity number, Agilent 2100 Bioanalyzer) in cultured A2780 cells
Format: cell-based
Settings: for concentration at which reductions in RNA integrity are induced: range tested 2.5-40 μM; for change in RNA integrity at low concentrations: low (micromolar) concentrations; for effect on RNA integrity (in words): up to 40 μM
Procedure: Before starting RNA isolation, an appropriate volume of buffer RLT is prepared by adding β-mercaptoethanol to buffer RLT in a ratio of 10 μl for every 1 ml of solution. RLT buffer is stable for a month after addition of β-ME. […] This precipitate was redissolved by warming at 30° C. and then placing the solution at room temperature. Aliquots of 0.5 ml RLT buffer (with β-ME) were placed in Eppendorf microfuge tubes prior to RNA isolation procedures. […] The resulting lysate is passed at least 5 times through a 20-gauge needle (0.9 mm diameter) fitted to an RNase-free syringe to shear associated genomic DNA. The sheared lysate is then transferred to a microcentrifuge tube and centrifuged at maximum speed for 3 minutes, with transfer of the supernatant to a new tube. One volume of 70% ethanol (500 μl) is added to the homogenized lysate, and the sample mixed well by pipetting. If some volume of the lysate is lost during homogenization, the volume of ethanol is adjusted accordingly. […] Up to 700 μl of the sample is then applied to an RNeasy mini column placed in a 2 ml collection tube, including any precipitate that may have formed. […] Any remaining lysate is applied to the column and the column centrifuged as described above, discarding the flow-through. Buffer RW1 (700 μl) is then added to the RNeasy column in a 2 ml microfuge tube to wash the column free of unbound lysate components. […] The RNeasy column is placed into a new 2 ml microfuge tube and 500 μl of RPE buffer is added to wash the column. After centrifugation for 30 seconds at ≥8000×g (≥10,000 rpm) to remove the wash buffer, two identical washes of the column in RPE buffer are performed. This buffer is supplied as a concentrate, and must be diluted with 4 volumes of ethanol (100%) prior to use. Any residual liquid associated with the column is then removed by centrifugation at full speed for 1 minute. […] After leaving the column at room temperature for 1 minute, the column is centrifuged for 1 min at full speed to collect the eluted RNA. To obtain a higher concentration and complete elution of the RNA from column, a second elution step was performed by reapplying the eluate to the column and centrifuging a second time.
This document includes a detailed description on setting up the assay equipment, preparing and running the RNA Nanochips, and analysis of the capillary electrophoretic data using the Agilent […] Bioanalyzer and its associated “Expert software”. It is important that all “Essential Measurement Practices” described in the document are followed. RNA 6000 “Nanochips” and associated solutions are obtained in RNA 6000 Nano kits that can be purchased from Agilent Technologies (Mississauga, ON). RNA Nanochips are manufactured by Caliper Life Sciences (Hopkinton, Mass.). The sizes of the rRNAs, and the concentration of RNA in a given sample are determined by extrapolation from a standard curve of reference RNAs provided in the RNA 6000 NANO kits. All data from the Bioanalyzer runs were stored both as PDF and XAD files. The Agilent 2100 Expert software was used to obtain all data from the capillary electrophoresis runs, including the RNA quality and quantity for a given RNA preparation.

[1] = 40 μM (each drug), same experiment, FIG. 2
[2] = 40 μM (each drug), same experiment, from 9.40±0.12 units, FIG. 2
[3] = A2780 cells, 40 μM, 24 h, FIG. 1

Row | SMILES | concentration at which reductions in RNA integrity are induced (A2780 cells, 24 h) [µM] | reduction in RNA integrity [3] | effect on RNA integrity (in words) (A2780 cells) | also measured
1 | O=c1[nH]cc(F)c(=O)[nH]1 [5-FI-uracil, 5-fluorouracil] | ≥ 20 | – | – | –
2 | N.N.[Cl][Pt][Cl] [cisplatin] | – | – | – | effect on RNA integrity at highest concentration (A2780 cells, 40 μM, 24 h): substantial and statistically significant reductions; change in RNA integrity at low concentrations (A2780 cells, 24 h): no effect
3 | CC(=O)O[C@@]12CO[C@@H]1C[C@H](O)[C@@]1(C)C(=O)[C@H](O)C3=C(C)[C@@H](OC(=O)[C@H](O)[C@@H](NC(=O)OC(C)(C)C)c4ccccc4)C[C@@](O)([C@@H](OC(=O)c4ccccc4)[C@H]21)C3(C)C [docetaxel] | – | 18.8% | minimal reduction | RNA integrity after treatment [1]: 8.67±0.42 units; reduction in RNA integrity [2]: 7.8%; change in RNA integrity at low concentrations (A2780 cells, 24 h): little change
4 | COc1cccc2c1C(=O)c1c(O)c3c(c(O)c1C2=O)C[C@@](O)(C(=O)CO)C[C@@H]3O[C@H]1C[C@H](N)[C@H](O)[C@H](C)O1 [doxorubicin] | 2.5 | up to 20.0% | significant reductions | –
5 | COc1cccc2c1C(=O)c1c(O)c3c(c(O)c1C2=O)C[C@@](O)(C(=O)CO)C[C@@H]3O[C@H]1C[C@H](N)[C@@H](O)[C@H](C)O1 [epirubicin] | 2.5 | – | – | RNA integrity after treatment [1]: 5.87±1.74 units; reduction in RNA integrity [2]: 37.7%; dose-dependent reduction in RNA quality (up to) (A2780 cells, 2.5-40 μM, 24 h, FIG. 1): up to 29.2%
6 | COc1cc([C@@H]2c3cc4c(cc3[C@@H](O[C@@H]3O[C@@H]5CO[C@@H](C)O[C@H]5[C@H](O)[C@H]3O)[C@H]3COC(=O)[C@H]23)OCO4)cc(OC)c1O [etoposide] | – | – | unable to affect RNA integrity | effect on RNA integrity at highest concentration (A2780 cells, 40 μM, 24 h): no effect
7 | CC(=O)O[C@H]1C(=O)[C@@]2(C)[C@H]([C@H](OC(=O)c3ccccc3)[C@]3(O)C[C@H](OC(=O)[C@H](O)[C@@H](NC(=O)c4ccccc4)c4ccccc4)C(C)=C1C3(C)C)[C@]1(OC(C)=O)CO[C@@H]1C[C@@H]2O [paclitaxel] | – | 75.8% | greatest reduction | reduction in RNA integrity (A2780 cells, 20 μM, 24 h, FIG. 1): 52.5%
8 | CC[C@]1(O)C[C@@H]2CN(CCc3c([nH]c4ccccc34)[C@@](C(=O)OC)(c3cc4c(cc3OC)N(C)[C@H]3[C@@](O)(C(=O)OC)[C@H](OC(C)=O)[C@]5(CC)C=CCN6CC[C@]43[C@@H]65)C2)C1 [vinblastine] | 2.5 | – | – | reduction of RNA integrity (A2780 cells, lowest concentration tested 2.5 μM): almost two

Source: patent publication US10590463B2, “Diagnostic methods and kits for monitoring response to chemotherapy in ovarian cancer” (RNA Disgnostics Inc., priority 2011, dated 2020)
